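Step 1: Grow cells in 96-well plates. Step 2: Expose to compound for 48 hours at 5 concentrations. Step 3: Interpolate endpoints linearly; if unreached, use highest concentration. Here, GI50 denotes the concentration required for 50% inhibition of growth. Definition used: TGI = concentration required for complete inhibition of growth.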
Assays:
Experiment in all cases: growth of human tumour cells (NCI), 48 h
A498 renal = system: A498 renal
SW-620 colon = system: SW-620 colon
SNB-75 CNS = system: SNB-75 CNS
SNB-19 CNS = system: SNB-19 CNS
A549 NSCLC = system: A549 NSCLC
BT-549 breast = system: BT-549 breast
MALME-3M melanoma = system: MALME-3M melanoma
MOLT-4 leukemia = system: MOLT-4 leukemia
SK-MEL-2 melanoma = system: SK-MEL-2 melanoma
SK-MEL-28 melanoma = system: SK-MEL-28 melanoma
HS 578T breast = system: HS 578T breast
SK-MEL-5 melanoma = system: SK-MEL-5 melanoma
OVCAR-8 ovarian = system: OVCAR-8 ovarian
OVCAR-4 ovarian = system: OVCAR-4 ovarian
UACC-257 melanoma = system: UACC-257 melanoma
DU-145 prostate = system: DU-145 prostate
U251 CNS = system: U251 CNS
COLO 205 colon = system: COLO 205 colon
SK-OV-3 ovarian = system: SK-OV-3 ovarian
M14 melanoma = system: M14 melanoma
HOP-92 NSCLC = system: HOP-92 NSCLC
MDA-MB-231 breast = system: MDA-MB-231 breast
MDA-MB-435 = system: MDA-MB-435
HL-60(TB) leukemia = system: HL-60(TB) leukemia
RPMI-8226 leukemia = system: RPMI-8226 leukemia
SF-268 CNS = system: SF-268 CNS
NCI-H460 lung = system: NCI-H460 lung
MCF7 breast = system: MCF7 breast
CAKI-1 renal = system: CAKI-1 renal
OVCAR-5 ovarian = system: OVCAR-5 ovarian
SR leukemia = system: SR leukemia
SF-539 CNS = system: SF-539 CNS
KM12 colon = system: KM12 colon
NCI-H23 lung = system: NCI-H23 lung
NCI/ADR-RES ovarian = system: NCI/ADR-RES ovarian
SF-295 CNS = system: SF-295 CNS
OVCAR-3 ovarian = system: OVCAR-3 ovarian
HCT-116 colon = system: HCT-116 colon
RXF 393 renal = system: RXF 393 renal
UACC-62 melanoma = system: UACC-62 melanoma
HT29 colon = system: HT29 colon
ACHN renal = system: ACHN renal
T-47D breast = system: T-47D breast
PC-3 prostate = system: PC-3 prostate
LOX IMVI melanoma = system: LOX IMVI melanoma
IGROV1 ovarian = system: IGROV1 ovarian
SN12C renal = system: SN12C renal
HCC-2998 colon = system: HCC-2998 colon
HCT-15 colon = system: HCT-15 colon
UO-31 renal = system: UO-31 renal
786-0 renal = system: 786-0 renal
CCRF-CEM leukemia = system: CCRF-CEM leukemia
NCI-H522 lung = system: NCI-H522 lung
HOP-62 NSCLC = system: HOP-62 NSCLC
TK-10 renal = system: TK-10 renal
K-562 leukemia = system: K-562 leukemia

Cc1cc2c(cc1C)N(C(=O)CCl)CC(=O)N2
GI50 (A498 renal): 3.5 µM | TGI (A498 renal): 18.2 µM | GI50 (SW-620 colon): 2.19 µM | TGI (SW-620 colon): 5.05 µM | GI50 (SNB-75 CNS): 3.39 µM | TGI (SNB-75 CNS): 20.8 µM | GI50 (SNB-19 CNS): 12.6 µM | TGI (SNB-19 CNS): 26.2 µM | GI50 (A549 NSCLC): 8.23 µM | TGI (A549 NSCLC): 26.7 µM | GI50 (BT-549 breast): 2.64 µM | TGI (BT-549 breast): 11.3 µM | GI50 (MALME-3M melanoma): 1.81 µM | TGI (MALME-3M melanoma): 3.81 µM | GI50 (MOLT-4 leukemia): 2.41 µM | TGI (MOLT-4 leukemia): 7.01 µM | GI50 (SK-MEL-2 melanoma): 4.2 µM | TGI (SK-MEL-2 melanoma): 14.4 µM | GI50 (SK-MEL-28 melanoma): 3.89 µM | TGI (SK-MEL-28 melanoma): 14.8 µM | GI50 (HS 578T breast): 4.08 µM | TGI (HS 578T breast): 68.8 µM | GI50 (SK-MEL-5 melanoma): 3.48 µM | TGI (SK-MEL-5 melanoma): 13.6 µM | GI50 (OVCAR-8 ovarian): 3.01 µM | TGI (OVCAR-8 ovarian): 10.8 µM | GI50 (OVCAR-4 ovarian): 1.59 µM | TGI (OVCAR-4 ovarian): 3.05 µM | GI50 (UACC-257 melanoma): 4.83 µM | TGI (UACC-257 melanoma): 18.5 µM | GI50 (DU-145 prostate): 3.49 µM | TGI (DU-145 prostate): 10.2 µM | GI50 (U251 CNS): 1.92 µM | TGI (U251 CNS): 4.25 µM | GI50 (COLO 205 colon): 2.09 µM | TGI (COLO 205 colon): 3.68 µM | GI50 (SK-OV-3 ovarian): 12.2 µM | TGI (SK-OV-3 ovarian): 24.6 µM | GI50 (M14 melanoma): 2.2 µM | TGI (M14 melanoma): 8.35 µM | GI50 (HOP-92 NSCLC): 1.59 µM | TGI (HOP-92 NSCLC): 3.93 µM | GI50 (MDA-MB-231 breast): 4.19 µM | TGI (MDA-MB-231 breast): 15.9 µM | GI50 (MDA-MB-435): 2.67 µM | TGI (MDA-MB-435): 10.2 µM | GI50 (HL-60(TB) leukemia): 2.69 µM | TGI (HL-60(TB) leukemia): 5.74 µM | GI50 (RPMI-8226 leukemia): 2.35 µM | TGI (RPMI-8226 leukemia): 7.15 µM | GI50 (SF-268 CNS): 3.47 µM | TGI (SF-268 CNS): 11.6 µM | GI50 (NCI-H460 lung): 3.66 µM | TGI (NCI-H460 lung): 14.4 µM | GI50 (MCF7 breast): 2.45 µM | TGI (MCF7 breast): 10.9 µM | GI50 (CAKI-1 renal): 1.84 µM | TGI (CAKI-1 renal): 3.52 µM | GI50 (OVCAR-5 ovarian): 2.53 µM | TGI (OVCAR-5 ovarian): 5.33 µM | GI50 (SR leukemia): 2.65 µM | TGI (SR leukemia): 7.04 µM | GI50 (SF-539 CNS): 3.44 µM | TGI (SF-539 CNS): 10.9 µM | GI50 (KM12 colon): 8.2 µM | TGI (KM12 colon): 22.2 µM | GI50 (NCI-H23 lung): 3.41 µM | TGI (NCI-H23 lung): 16.4 µM | GI50 (NCI/ADR-RES ovarian): 3.18 µM | TGI (NCI/ADR-RES ovarian): > 100 µM | GI50 (SF-295 CNS): 13.6 µM | TGI (SF-295 CNS): 29.6 µM | GI50 (OVCAR-3 ovarian): 1.89 µM | TGI (OVCAR-3 ovarian): 3.33 µM | GI50 (HCT-116 colon): 2.53 µM | TGI (HCT-116 colon): 9.77 µM | GI50 (RXF 393 renal): 2.46 µM | TGI (RXF 393 renal): 5.68 µM | GI50 (UACC-62 melanoma): 3.54 µM | TGI (UACC-62 melanoma): 12.7 µM | GI50 (HT29 colon): 2.01 µM | TGI (HT29 colon): 3.73 µM | GI50 (ACHN renal): 1.82 µM | TGI (ACHN renal): 3.24 µM | GI50 (T-47D breast): 1.97 µM | TGI (T-47D breast): 3.99 µM | GI50 (PC-3 prostate): 4.48 µM | TGI (PC-3 prostate): 18.9 µM | GI50 (LOX IMVI melanoma): 0.858 µM | TGI (LOX IMVI melanoma): 4.85 µM | GI50 (IGROV1 ovarian): 2.22 µM | TGI (IGROV1 ovarian): 4.45 µM | GI50 (SN12C renal): 3.44 µM | TGI (SN12C renal): 12 µM | GI50 (HCC-2998 colon): 2.88 µM | TGI (HCC-2998 colon): 8.91 µM | GI50 (HCT-15 colon): 1.74 µM | TGI (HCT-15 colon): 3.42 µM | GI50 (UO-31 renal): 1.74 µM | TGI (UO-31 renal): 3.24 µM | GI50 (786-0 renal): 3.9 µM | TGI (786-0 renal): 15.5 µM | GI50 (CCRF-CEM leukemia): 2.01 µM | TGI (CCRF-CEM leukemia): 5.49 µM | GI50 (NCI-H522 lung): 0.568 µM | TGI (NCI-H522 lung): 1.97 µM | GI50 (HOP-62 NSCLC): 3.3 µM | TGI (HOP-62 NSCLC): 12 µM | GI50 (TK-10 renal): 2.11 µM | TGI (TK-10 renal): 3.59 µM | GI50 (K-562 leukemia): 3.39 µM | TGI (K-562 leukemia): 29.4 µM
